In test [1] the target is Mitogen-activated protein kinase 14 (Homo sapiens, UniProt Q16539). The experiment in a line: Inhibition of human Mitogen-activated protein kinase p38 alpha.
In another test the test system is THP-1. As to the kind of experiment: Concentration required to inhibit production of Tumor necrosis factor, alpha in LPS-stimulated human monocytic cells (THP-1). In kind it is functional, cell-based.

Bounds are passed on as bounds.

Chain of Mitogen-activated protein kinase 14 (Q16539 whole entry): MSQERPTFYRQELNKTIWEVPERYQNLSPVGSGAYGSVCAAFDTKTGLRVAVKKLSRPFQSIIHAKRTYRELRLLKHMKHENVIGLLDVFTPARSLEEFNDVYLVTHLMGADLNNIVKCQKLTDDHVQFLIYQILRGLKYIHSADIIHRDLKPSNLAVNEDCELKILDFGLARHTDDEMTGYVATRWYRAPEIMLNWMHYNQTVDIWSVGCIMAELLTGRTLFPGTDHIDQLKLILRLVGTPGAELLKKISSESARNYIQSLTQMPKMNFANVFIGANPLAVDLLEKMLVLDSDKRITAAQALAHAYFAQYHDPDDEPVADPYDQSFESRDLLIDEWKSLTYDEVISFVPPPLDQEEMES

For the molecule `COC[C@@H](C)Nc1nccc(-c2nn3c(c2-c2ccc(F)cc2)OCC3)n1`, the IC50 in test [1] was determined as 280 nM; in the test on THP-1, 1700 nM.

`Fc1ccc(-c2c(-c3ccnc(Oc4ccccc4)n3)nn3c2OCC3)cc1`: the IC50 in test [1] came to 2200 nM; with THP-1, 300 nM.

Turning to `CCOCn1nnc(-c2ccncc2)c1-c1ccc(F)cc1`, in test [1], the concentration for half-maximal inhibition (IC50) turned out to be 310 nM.

For `C[C@@H](Nc1nccc(-c2nn3c(c2-c2ccc(F)cc2)OCC3)n1)c1ccccc1`, the IC50 in test [1] is 11200 nM; in the test on THP-1, above 2000 nM.

On to `Fc1ccc(-c2c(-c3ccncc3)nn3c2OCCC3)cc1`, for which the IC50 was 460 nM in test [1] and 3100 nM with THP-1.

Consider `CC[C@@H](C)Nc1nccc(-c2nn3c(c2-c2ccc(F)cc2)OCC3)n1`, for which the IC50 in test [1] came out at 360 nM; with THP-1, 80 nM.

In the case of `Oc1[nH]nc(-c2ccncc2)c1-c1ccc(F)cc1`, the IC50 in test [1] turned out to be 320 nM; with THP-1, 3100 nM.

For `Fc1ccc(-c2c(-c3ccnc(Oc4ccccc4)n3)nn3c2OCCC3)cc1`, the concentration for half-maximal inhibition (IC50) in test [1] is 6600 nM; with THP-1 it was above 10000 nM.

A word on the IC50: it is the concentration that inhibits the measured activity by half. A low value points to greater potency in that assay.

For the origin of these results see ChEMBL document CHEMBL1137879, “The development of new bicyclic pyrazole-based cytokine synthesis inhibitors” (Bioorg Med Chem Lett, 2004).
